Assay results from patent US4394503A, “Cephalosporin derivatives” (priority 1981, dated 1983).
Values after ≈ are worked out from the molar mass of the structure shown. Read-outs that look alike come from different tables or passages of the source.

Legend:
P. aeruginosa A20717 = assay: MIC against selected test organisms (Table 2); type: cell-based; settings: Pseudomonas aeruginosa
H. influenzae(AMP-S) = assay: In vitro activity against species of Streptococcus, Neisseria and Haemophilus (Table 3); type: cell-based; settings: Haemophilus influenzae, read-out: Geometric Mean of MIC
C. perfringens A9635 = assay: microbe, parasite or virus in culture; type: cell-based; settings: Clostridium perfringens, A9635, read-out: Minimum Inhibitory Concentration
Ps. aeruginosa (Gn-III) = assay: In vitro antibacterial activity, two-fold agar dilution, Mueller-Hinton agar (Table 1), group Gn-III; type: cell-based; settings: Pseudomonas aeruginosa; read-out: Geometric Mean of MIC
S. marcescens A20019 = assay: MIC against selected test organisms (Table 2); type: cell-based; settings: Serratia marcescens
B. fragilis A21900 = assay: MIC against selected test organisms (Table 2); type: cell-based; settings: Bacteroides fragilis
B. fragilis A22533 = assay: MIC against selected test organisms (Table 2); type: cell-based; settings: Bacteroides fragilis
N. gonorrhoeae = assay: In vitro activity against species of Streptococcus, Neisseria and Haemophilus (Table 3); type: cell-based; settings: Neisseria gonorrhoeae, read-out: Geometric Mean of MIC
N. meningitidus = assay: as above; type: cell-based; settings: read-out: Geometric Mean of MIC
B. fragilis A22021 = assay: MIC against selected test organisms (Table 2); type: cell-based; settings: Bacteroides fragilis, A22021, read-out: Minimum Inhibitory Concentration
S. pyrogenes = assay: In vitro activity against species of Streptococcus, Neisseria and Haemophilus (Table 3); type: cell-based; settings: read-out: Geometric Mean of MIC
P. aeruginosa A9843 [1] = assay: MIC against selected test organisms (Table 2); type: cell-based; settings: Pseudomonas aeruginosa
E. coli A15148 = assay: MIC against selected test organisms (Table 2); type: cell-based; settings: Escherichia coli
B. fragilis A22693 = assay: MIC against selected test organisms (Table 2); type: cell-based; settings: Bacteroides fragilis, A22693, read-out: Minimum Inhibitory Concentration
[2] = system: Cephalothin-resistant E. coli and Kl. pneumoniae (Gn-Ib); assay: In vitro antibacterial activity, two-fold agar dilution, Mueller-Hinton agar (Table 1), group Gn-Ib; type: cell-based, E. coli (3) and Kl. pneumoniae (3); settings: Escherichia coli, read-out: Geometric Mean of MIC
K. pneumoniae D11 = assay: MIC against selected test organisms (Table 2); type: cell-based; settings: Klebsiella pneumoniae
H. influenzae(AMP-R) = assay: In vitro activity against species of Streptococcus, Neisseria and Haemophilus (Table 3); type: cell-based; settings: Haemophilus influenzae, read-out: Geometric Mean of MIC
B. fragilis A20928-1 = assay: MIC against selected test organisms (Table 2); type: cell-based; settings: Bacteroides fragilis
P. aeruginosa A15150 = assay: MIC against selected test organisms (Table 2); type: cell-based; settings: Pseudomonas aeruginosa
[3] = system: Pr. morganii, Ent. cloacae and Ser. marcescens (Gn-II); assay: In vitro antibacterial activity, two-fold agar dilution, Mueller-Hinton agar (Table 1), group Gn-II; type: cell-based, Pr. morganii (1), Ent. cloacae (2) and Ser. marcescens (2); settings: read-out: Geometric Mean of MIC
P. mirabilis A9554 = assay: MIC against selected test organisms (Table 2); type: cell-based; settings: Proteus mirabilis
Pr. mirabilis A9900 = assay: Therapeutic efficacy in experimentally infected mice (Table 5); type: in vivo; settings: Proteus mirabilis, A9900, im, 120 h; i.m., immediately after intraperitoneal challenge, 5 days observation; read-out: PD50 (median protective dose)
Experimental: (§1) The test compounds were administered intramuscularly immediately after the bacterial challenge.

S. aureus BX-1633 = assay: as above; type: in vivo; settings: Staphylococcus aureus, BX1633, im, 120 h; i.m., immediately after intraperitoneal challenge, 5 days observation; read-out: PD50 (median protective dose)
Experimental: as §1

P. aeruginosa A9843 [4] = assay: as above; type: in vivo; settings: Pseudomonas aeruginosa, A9843, im, 120 h; i.m., immediately after intraperitoneal challenge, 5 days observation; read-out: PD50 (median protective dose)
Experimental: as §1

S. aureus Smith = assay: as above; type: in vivo; settings: Staphylococcus aureus, im, 120 h; i.m., immediately after intraperitoneal challenge, 5 days observation; read-out: PD50 (median protective dose)
Experimental: as §1

E. cloacae A9656 = assay: as above; type: in vivo; settings: Enterobacter cloacae, A9656, im, 120 h; i.m., immediately after intraperitoneal challenge, 5 days observation; read-out: PD50 (median protective dose)
Experimental: as §1

E. coli Juhl = assay: as above; type: in vivo; settings: Escherichia coli, im, 120 h; i.m., immediately after intraperitoneal challenge, 5 days observation; read-out: PD50 (median protective dose)
Experimental: as §1

[5] = system: Penicillin-resistant S. aureus (Gp-Ib); assay: In vitro antibacterial activity, two-fold agar dilution, Mueller-Hinton agar (Table 1), group Gp-Ib; type: cell-based
K. pneumoniae A 9867 = assay: MIC against selected test organisms (Table 2); type: cell-based; settings: Klebsiella pneumoniae
S. pneumoniae = assay: In vitro activity against species of Streptococcus, Neisseria and Haemophilus (Table 3); type: cell-based; settings: read-out: Geometric Mean of MIC
B. fragilis A22695 = assay: MIC against selected test organisms (Table 2); type: cell-based; settings: Bacteroides fragilis
P. acnes A21933 = assay: MIC against selected test organisms (Table 2); type: cell-based; settings: Cutibacterium acnes

`CSc1cc[n+](CC2=C(C(=O)[O-])N3C(=O)C(NC(=O)/C(=N\OC(C)(C)C(=O)O)c4csc(N)n4)C3SC2)cc1` (stereo not shown) [Example 2, 7-[(Z)-2-(2-Aminothiazol-4-yl)-2-(2-carboxyprop-2-oxyimino)-acetamido]-3-[(4-methylthiopyridinium)methyl]-3-cephem-4-carboxylate] gave an MIC (P. aeruginosa A20717; A20717, Gn-III, CET-R, read-out: Minimum Inhibitory Concentration) of 6.3 mg/L (≈ 10.6 µM), an MIC (H. influenzae(AMP-S); AMP-S, 7 strains) of 0.1 mg/L (≈ 0.169 µM) and an MIC (C. perfringens A9635) of 12.5 mg/L (≈ 21.1 µM). It also gave an MIC (Ps. aeruginosa (Gn-III)) of 3.1 mg/L (≈ 5.23 µM), an MIC (S. marcescens A20019; A20019, Gn-II, CET-R, read-out: Minimum Inhibitory Concentration) of 0.4 mg/L (≈ 0.675 µM) and an MIC (B. fragilis A21900; A21900, Anaerobe, CET-S, read-out: Minimum Inhibitory Concentration) of 6.3 mg/L (≈ 10.6 µM). For the same compound, the MIC (B. fragilis A22533; A22533, Anaerobe, AMP-R, read-out: Minimum Inhibitory Concentration) was > 100 mg/L, the MIC (N. gonorrhoeae; 4 strains) was 0.013 mg/L (≈ 0.0219 µM) and the MIC (N. meningitidus; 5 strains) was 0.013 mg/L (≈ 0.0219 µM). It also gave an MIC (B. fragilis A22021) of 12.5 mg/L (≈ 21.1 µM), an MIC (S. pyrogenes) of 0.2 mg/L (≈ 0.337 µM) and an MIC (P. aeruginosa A9843 [1]; A9843, Gn-III, CET-R, read-out: Minimum Inhibitory Concentration) of 1.6 mg/L (≈ 2.7 µM). The MIC (E. coli A15148; A15148, Gn-Ib, CET-R, read-out: Minimum Inhibitory Concentration) was 0.2 mg/L (≈ 0.337 µM), the MIC (B. fragilis A22693) was 12.5 mg/L (≈ 21.1 µM) and the MIC [2] was 0.89 mg/L (≈ 1.5 µM). For the same compound, the MIC (K. pneumoniae D11; D11, Gn-Ia, CET-S, read-out: Minimum Inhibitory Concentration) was 0.1 mg/L (≈ 0.169 µM), the MIC (H. influenzae(AMP-R); AMP-R, 3 strains) was 0.4 mg/L (≈ 0.675 µM) and the MIC (B. fragilis A20928-1; A209281, Anaerobe, CET-S, read-out: Minimum Inhibitory Concentration) was 3.1 mg/L (≈ 5.23 µM). The MIC (P. aeruginosa A15150; A15150, Gn-III, CET-R, read-out: Minimum Inhibitory Concentration) was 1.6 mg/L (≈ 2.7 µM), the MIC [3] was 1.5 mg/L (≈ 2.53 µM) and the MIC (P. mirabilis A9554; A9554, Gn-Ia, CET-S, read-out: Minimum Inhibitory Concentration) was 0.05 mg/L (≈ 0.0844 µM). It also gave an ED50 (Pr. mirabilis A9900) of 0.63 mg/kg, an ED50 (S. aureus BX-1633) of 15 mg/kg and an ED50 (P. aeruginosa A9843 [4]) of 12 mg/kg. For the same compound, the ED50 (S. aureus Smith) was 5 mg/kg, the ED50 (E. cloacae A9656) was 3.5 mg/kg and the ED50 (E. coli Juhl) was 0.16 mg/kg. It also gave an MIC ([5]; Staphylococcus aureus; read-out: Geometric Mean of MIC) of 6.3 mg/L (≈ 10.6 µM), an MIC (K. pneumoniae A 9867; A9867, Gn-Ib, CET-R, read-out: Minimum Inhibitory Concentration) of 3.1 mg/L (≈ 5.23 µM) and an MIC (S. pneumoniae; 5 strains) of 0.2 mg/L (≈ 0.337 µM). For the same compound, the MIC (B. fragilis A22695; A22695, Anaerobe, AMP-R, read-out: Minimum Inhibitory Concentration) was 50 mg/L (≈ 84.4 µM) and the MIC (P. acnes A21933; A21933, Anaerobe, CLDM-R, read-out: Minimum Inhibitory Concentration) was 1.6 mg/L (≈ 2.7 µM).

`CC(C)(O/N=C(\C(=O)N[C@@H]1C(=O)N2C(C(=O)[O-])=C(C[n+]3ccccc3)CS[C@H]12)c1csc(N)n1)C(=O)O` [Ceftazidime, ceftazidime, reference compound] was tested, and the MIC (P. aeruginosa A20717; A20717, read-out: Minimum Inhibitory Concentration) was 6.3 mg/L (≈ 11.5 µM), the MIC (H. influenzae(AMP-S)) was 0.055 mg/L (≈ 0.101 µM) and the MIC (C. perfringens A9635) was 6.3 mg/L (≈ 11.5 µM). It also gave an MIC (Ps. aeruginosa (Gn-III)) of 2 mg/L (≈ 3.66 µM), an MIC (S. marcescens A20019; A20019, read-out: Minimum Inhibitory Concentration) of 0.1 mg/L (≈ 0.183 µM) and an MIC (B. fragilis A21900; A21900, read-out: Minimum Inhibitory Concentration) of 25 mg/L (≈ 45.7 µM). The MIC (B. fragilis A22533; A22533, read-out: Minimum Inhibitory Concentration) was > 100 mg/L, the MIC (N. gonorrhoeae) was 0.1 mg/L (≈ 0.183 µM) and the MIC (N. meningitidus) was 0.1 mg/L (≈ 0.183 µM). It also gave an MIC (B. fragilis A22021) of 12.5 mg/L (≈ 22.9 µM), an MIC (S. pyrogenes) of 0.4 mg/L (≈ 0.732 µM) and an MIC (P. aeruginosa A9843 [1]; A9843, read-out: Minimum Inhibitory Concentration) of 1.6 mg/L (≈ 2.93 µM). It also gave an MIC (E. coli A15148; A15148, read-out: Minimum Inhibitory Concentration) of 0.4 mg/L (≈ 0.732 µM), an MIC (B. fragilis A22693) of 12.5 mg/L (≈ 22.9 µM) and an MIC [2] of 1.6 mg/L (≈ 2.93 µM). The MIC (K. pneumoniae D11; D11, read-out: Minimum Inhibitory Concentration) was 0.1 mg/L (≈ 0.183 µM), the MIC (H. influenzae(AMP-R)) was 0.2 mg/L (≈ 0.366 µM) and the MIC (B. fragilis A20928-1; A209281, read-out: Minimum Inhibitory Concentration) was 3.1 mg/L (≈ 5.67 µM). For the same compound, the MIC (P. aeruginosa A15150; A15150, read-out: Minimum Inhibitory Concentration) was 0.8 mg/L (≈ 1.46 µM), the MIC [3] was 2.7 mg/L (≈ 4.94 µM) and the MIC (P. mirabilis A9554; A9554, read-out: Minimum Inhibitory Concentration) was 0.05 mg/L (≈ 0.0915 µM). The ED50 (Pr. mirabilis A9900) was 0.9 mg/kg, the ED50 (S. aureus BX-1633) was 15 mg/kg and the ED50 (P. aeruginosa A9843 [4]) was 6 mg/kg. It also gave an ED50 (S. aureus Smith) of 10 mg/kg, an ED50 (E. cloacae A9656) of 3.5 mg/kg and an ED50 (E. coli Juhl) of 0.11 mg/kg. The MIC ([5]; Staphylococcus aureus, read-out: Geometric Mean of MIC) was 12.5 mg/L (≈ 22.9 µM), the MIC (K. pneumoniae A 9867; A9867, read-out: Minimum Inhibitory Concentration) was 6.3 mg/L (≈ 11.5 µM) and the MIC (S. pneumoniae) was 0.4 mg/L (≈ 0.732 µM). For the same compound, the MIC (B. fragilis A22695; A22695, read-out: Minimum Inhibitory Concentration) was 50 mg/L (≈ 91.5 µM) and the MIC (P. acnes A21933; A21933, read-out: Minimum Inhibitory Concentration) was 1.6 mg/L (≈ 2.93 µM).
